Source: patent US20150284683A1, “METHOD, COMBINATION AND/OR COMPOSITION FOR INDUCING CARDIOMYOCYTE DIFFERENTATION” (SINGAPORE HEALTH SERVICES LTD, priority 2012, published 2015)

How the values were obtained:
Type in all cases: cell-based, human
[1] = test system: hiPSC C2 cell line; assay: Embryoid body (EB) cardiac differentiation, beating EBs, hiPSC C2
Description: (§1) Human ES cells (H9; Wicell, USA) and iPS cells (MSnviPSNF2 (C2) and MSnviPSNF3 (C3); both described in Mehta et al., 2011) were maintained on 1% matrigel (BD Biosciences, CA, USA) and grown in chemically defined mTeSR1 medium (Stem Cell Technologies, VA, Canada). Differentiated areas (<10%) were manually removed periodically with a scraper and prior to passaging. Pluripotent stem cells were subsequently washed with DMEM-F12 (Invitrogen, CA, USA) and incubated with 1 mg/ml dispase (Stem Cell Technologies, VA, Canada) for 5-7 minutes. Subsequently, cells colonies were washed using DMEM-F12 and carefully cut into small clumps of approximately 50-70 μm in size before being scrapped from the surface of the culture dishes. […]
(§2) Subsequently, addition of different small molecules (components) were carried out at various stages of differentiation, either alone or in combination with at least one other component (FIG. 1): SB 203580 daily from day 2 through to day 8 from EB induction; Wnt modulator IWP4 daily from day 4 through to day 8 from EB induction, CSA daily from day 4 through to day 8 from EB induction, and ROS activator H2O2 on day 8 (15 min prior to plating). […] All EBs were evaluated morphologically under the microscope at 4× magnification for 10-15 seconds. […]

[2] = test system: hiPSC C3 cell line; assay: Embryoid body (EB) cardiac differentiation, beating EBs, hiPSC C3
Description: as §1, §2

[3] = test system: hESC (H9) cell line; assay: Embryoid body (EB) cardiac differentiation, beating EBs, hESC H9; settings: SB203580 5 μM day 2 to day 8
Description: as §1, §2

[4] = test system: H3-Nkx2.5-GFP line; assay: Spin EB contraction during protocol standardization (Example 2); settings: only 10 uM SB203580; EBs of 2,500 to 7,500 cells
Description: Briefly, hiPSC/hESC lines were pre-treated with 10 μM Y27632 (Stem Cell Technologies, VA, Canada) for 4 h before dissociating them to single cells with. Accutase (Stem Cell Technologies, VA, Canada). Cells were aggregated in spin EBs of 5000 cells/EB in AggreWell™ 800 (Stem Cell Technologies, VA, Canada) in media A (mTesR1: DMEM-F12-B27 (1:1) with 4 mg/mL PVA) with Ascorbic acid (284 μM) and BMP4 ([…]) and centrifuged at 300 g for 5 min and incubated overnight. […] […] […] EBs were plated on day 8 in EB2 medium (DMEM-F12 with 2% FBS) on 0.1% gelatin coated dishes. Beating areas were clearly observed between day 10-14 depending on different cell lines. Beating areas were manually dissected out after day 14 of differentiation and utilized for all experiments.
To maintain consistency in differentiation efficiency, an EB based protocol was utilised to recapitulate early cardiac development that hinges on stage-specific activation and inhibition′ of Wnt/β-catenin along with BMP modulation. All initial experiments were performed using H3-Nkx2.5-GFP line to standardize the protocol. Spin EBs of different sizes (1,000, 2,500, 5,000, 7,500 and 10,000 cells/EB) were made and it was observed that EBs of 2,500 to 7,500 cells gave contracting cardiomyocytes by day 14-15 using only 10 uM SB203580 (FIG. 11B; Non-treated), with highest efficiencies with 5,000 cell EBs. Next. […]

[5] = test system: H3-Nkx2.5-GFP line; assay: Real-time PCR gene expression during standardization of differentiation (Example 2); settings: Treated S1+S2+VEGF
Description: For real-time reverse-transcription polymerase chain reaction (qRT-PCR) analysis, RNA was isolated with the RNeasy kit (Qiagen GmbH, Hilden, Germany). One μg of total RNA was converted to complementary DNA. by Superscript III first-strand synthesis system (Invitrogen, CA, USA). cDNA template (5 ng) was used from each sample and SYBR green real-time PCR studies were performed using Quantifast kit (Qiagen GmbH, Hilden, Germany) and primer (Supplementary table 1) as per the kit instructions. Samples were cycled with RotorGene Q (Qiagen GmbH, Hilden, Germany) as follows: 5 minutes at 95° C., followed by 40 cycles of 10 seconds at 95° C. and 30 second extension at 60° C. All experiments were performed in triplicates. Relative quantification was calculated according to the ΔΔCt method for quantitative real-time PCR (using an endogenous control gene, GAPDH). For each gene, the expression at a specific day was then normalized by its baseline values. Heatmaps were generated from Ct values using Genesis software.
To maintain consistency in differentiation efficiency, an EB based protocol was utilised to recapitulate early cardiac development that hinges on stage-specific activation and inhibition′ of Wnt/β-catenin along with BMP modulation. All initial experiments were performed using H3-Nkx2.5-GFP line to standardize the protocol. […]

[6] = titration 1, 3, 5, 7 μM with SB203580 5 μM and CSA 3 μg/ml
[7] = SB203580 5 μM day 2-8, without or with CSA 3 μg/ml day 4-8, 21 days

## COc1ccccc1-n1c(SCC(=O)Nc2nc3ccc(C)cc3s2)nc2c(c1=O)SCC2 [IWP4, 2-(3,4,6,7-tetrahydro-3-(2-methoxyphenyl)-4-oxothieno[3,2-d]pyrimidin-2-ylthio)-N-(6-methylbenzo[d]thiazol-2-yl)acetamide]
[1]; [6]
  IWP4 concentration at which induction of contracting loci peaked: 5 µM
[2]; [6]
  IWP4 concentration at which induction of contracting loci peaked: 5 µM

## C[S+]([O-])c1ccc(-c2nc(-c3ccc(F)cc3)c(-c3ccncc3)[nH]2)cc1 (centres unmarked) [SB203580, 4-[4-(4-fluorophenyl)-2-(4-methylsulfinylphenyl)-1H-imidazol-5-yl]pyridine]
[1]; [7]
  cardiac-inducing effect: no cardiac-inducing effect
[3]
  day spontaneous beating clusters were first observed: 14 days
[3]; after 21 days
  percentage of total EBs plated found to be beating: 16.6%
[2]; [7]
  cardiac-inducing effect: no cardiac-inducing effect
[4]
  day by which EBs gave contracting cardiomyocytes: 14 to 15 days

## VEGF
[5]
  gene expression change: substantially increased gene expression levels of Wnt11
